Measurements taken from patent US11191820B2, “Method for inducing early T memory response with short peptides anti-tumor vaccine” (OSE IMMUNOTHERAPEUTICS, priority 2015, dated 2021).

Legend:
central memory T cells [1] = test: Cultured IFN-γ ELISPOT after 10-day in vitro stimulation of PBMC, phase 1/2 NSCLC trial of OSE-2101; type: in vivo, human; set-up: key to net SFC of vaccine positive CTL responses: —, indicates SFC response did not meet criteria and vaccine response was negative; settings: for Mean SFC / No. Positive Responses: 6 NSCLC patients
Outline: (§1)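 Patient PBMC (pre-treatment, Week 9, Week 18, after s.c. dosing every 3 weeks) were stimulated 10 days with 10 μg/ml of each epitope plus rIL-2 10 U/ml on days 1, 4 and 7. Cells were then tested 20 h with irradiated autologous PBMC and 10 μg/ml vaccine or wild-type peptide. Net SFC per 5×10^4 cells, irrelevant HBV peptide subtracted.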

central memory T cells [2] = test: Cultured IFN-γ ELISPOT after 10-day in vitro stimulation of PBMC, phase 1/2 colon cancer trial of OSE-2101; type: in vivo, human; set-up: key to net SFC of vaccine positive CTL responses: —, indicates SFC response did not meet criteria and vaccine response was negative; settings: for Mean SFC: 10 colon patients
Outline: as §1

central memory T cells [3] = test: Central memory T cell cultured ELISPOT, phase 2 trial in advanced NSCLC; type: in vivo, human
Outline: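 Patient PBMC were pre-stimulated for 10 days with 10 μg/ml peptide plus rIL2 (10 U/ml, days 1, 4, 7), then replated at 5×10^4/well with irradiated autologous PBMC and 10 μg/ml peptide, and SFC were counted. A response was positive if >5 SFC above, and > mean+2 SD of, the irrelevant HBV epitope, and twofold the pre-vaccination response plus 2 SD.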

advanced NSCLC = settings: phase 3 study in squamous NSCLC (Brahmer 2015); cited from earlier work

Substance: YLQLVFGIEV [MAGE2.157 WT]
- Mean SFC (central memory T cells [1]; Week 9): 30.0 SFC per 50,000 cells
- No. Positive Responses (central memory T cells [1]; Week 9): 2
- Mean SFC (central memory T cells [1]; Week 18): 66.8 SFC per 50,000 cells
- No. Positive Responses (central memory T cells [1]; Week 18): 2
- net SFC of vaccine positive CTL responses (central memory T cells [1]; NSCLC patient 201, Week 9): —
- net SFC of vaccine positive CTL responses (central memory T cells [1]; NSCLC patient 201, Week 18): —
- net SFC of vaccine positive CTL responses (central memory T cells [1]; NSCLC patient 502, Week 9): 9.3 SFC per 50,000 cells
- net SFC of vaccine positive CTL responses (central memory T cells [1]; NSCLC patient 502, Week 18): —
- net SFC of vaccine positive CTL responses (central memory T cells [1]; NSCLC patient 504, Week 9): 50.7 SFC per 50,000 cells
- net SFC of vaccine positive CTL responses (central memory T cells [1]; NSCLC patient 504, Week 18): 124.7 SFC per 50,000 cells
- net SFC of vaccine positive CTL responses (central memory T cells [1]; NSCLC patient 505, Week 9): —
- net SFC of vaccine positive CTL responses (central memory T cells [1]; NSCLC patient 505, Week 18): —
- net SFC of vaccine positive CTL responses (central memory T cells [1]; NSCLC patient 532, Week 9): —
- net SFC of vaccine positive CTL responses (central memory T cells [1]; NSCLC patient 532, Week 18): —
- net SFC of vaccine positive CTL responses (central memory T cells [1]; NSCLC patient 651, Week 9): —
- net SFC of vaccine positive CTL responses (central memory T cells [1]; NSCLC patient 651, Week 18): 9.0 SFC per 50,000 cells
- Mean SFC (central memory T cells [2]; Week 9): 246.0 SFC per 50,000 cells
- Mean SFC (central memory T cells [2]; Week 18): 418.1 SFC per 50,000 cells
- net SFC of vaccine positive CTL responses (central memory T cells [2]; colon patient 551, Week 9): —
- net SFC of vaccine positive CTL responses (central memory T cells [2]; colon patient 551, Week 18): 45.7 SFC per 50,000 cells
- net SFC of vaccine positive CTL responses (central memory T cells [2]; colon patient 601, Week 9): —
- net SFC of vaccine positive CTL responses (central memory T cells [2]; colon patient 601, Week 18): —
- net SFC of vaccine positive CTL responses (central memory T cells [2]; colon patient 602, Week 9): —
- net SFC of vaccine positive CTL responses (central memory T cells [2]; colon patient 602, Week 18): —
- net SFC of vaccine positive CTL responses (central memory T cells [2]; colon patient 603, Week 9): 320.0 SFC per 50,000 cells
- net SFC of vaccine positive CTL responses (central memory T cells [2]; colon patient 603, Week 18): —
- net SFC of vaccine positive CTL responses (central memory T cells [2]; colon patient 604, Week 9): —
- net SFC of vaccine positive CTL responses (central memory T cells [2]; colon patient 604, Week 18): —
- net SFC of vaccine positive CTL responses (central memory T cells [2]; colon patient 605, Week 9): —
- net SFC of vaccine positive CTL responses (central memory T cells [2]; colon patient 605, Week 18): —
- net SFC of vaccine positive CTL responses (central memory T cells [2]; colon patient 606, Week 9): —
- net SFC of vaccine positive CTL responses (central memory T cells [2]; colon patient 606, Week 18): 24.7 SFC per 50,000 cells
- net SFC of vaccine positive CTL responses (central memory T cells [2]; colon patient 607, Week 9): 172.0 SFC per 50,000 cells
- net SFC of vaccine positive CTL responses (central memory T cells [2]; colon patient 607, Week 18): 1184.0 SFC per 50,000 cells
- net SFC of vaccine positive CTL responses (central memory T cells [2]; colon patient 608, Week 9): —
- net SFC of vaccine positive CTL responses (central memory T cells [2]; colon patient 608, Week 18): —
- net SFC of vaccine positive CTL responses (central memory T cells [2]; colon patient 609, Week 9): —
- net SFC of vaccine positive CTL responses (central memory T cells [2]; colon patient 609, Week 18): —
- % of patients with positive CTL/central memory T cell response (central memory T cells [3]; phase 2, month 9): 57%
- patients with positive CTL/central memory T cell response / patients tested (central memory T cells [3]; phase 2, month 9): 4/7
- % of patients with positive CTL/central memory T cell response (central memory T cells [3]; phase 2, month 12): 50%
- patients with positive CTL/central memory T cell response / patients tested (central memory T cells [3]; phase 2, month 12): 2/4
- % of patients with positive CTL/central memory T cell response (central memory T cells [3]; phase 2, week 9): 27%
- patients with positive CTL/central memory T cell response / patients tested (central memory T cells [3]; phase 2, week 9): 9/33
- % of patients with positive CTL/central memory T cell response (central memory T cells [3]; phase 2, week 18): 28%
- patients with positive CTL/central memory T cell response / patients tested (central memory T cells [3]; phase 2, week 18): 9/32
- % of patients with positive CTL/central memory T cell response (central memory T cells [3]; phase 2, week 30): 43%
- patients with positive CTL/central memory T cell response / patients tested (central memory T cells [3]; phase 2, week 30): 10/23

Substance: YLSGADLNL [CEA.605D6 A]
- Mean SFC (central memory T cells [1]; Week 9): 20.7 SFC per 50,000 cells
- No. Positive Responses (central memory T cells [1]; Week 9): 1
- Mean SFC (central memory T cells [1]; Week 18): 137.5 SFC per 50,000 cells
- No. Positive Responses (central memory T cells [1]; Week 18): 2
- net SFC of vaccine positive CTL responses (central memory T cells [1]; NSCLC patient 201, Week 9): —
- net SFC of vaccine positive CTL responses (central memory T cells [1]; NSCLC patient 201, Week 18): —
- net SFC of vaccine positive CTL responses (central memory T cells [1]; NSCLC patient 502, Week 9): —
- net SFC of vaccine positive CTL responses (central memory T cells [1]; NSCLC patient 502, Week 18): —
- net SFC of vaccine positive CTL responses (central memory T cells [1]; NSCLC patient 504, Week 9): 20.7 SFC per 50,000 cells
- net SFC of vaccine positive CTL responses (central memory T cells [1]; NSCLC patient 504, Week 18): 214.3 SFC per 50,000 cells
- net SFC of vaccine positive CTL responses (central memory T cells [1]; NSCLC patient 505, Week 9): —
- net SFC of vaccine positive CTL responses (central memory T cells [1]; NSCLC patient 505, Week 18): 60.7 SFC per 50,000 cells
- net SFC of vaccine positive CTL responses (central memory T cells [1]; NSCLC patient 532, Week 9): —
- net SFC of vaccine positive CTL responses (central memory T cells [1]; NSCLC patient 532, Week 18): —
- net SFC of vaccine positive CTL responses (central memory T cells [1]; NSCLC patient 651, Week 9): —
- net SFC of vaccine positive CTL responses (central memory T cells [1]; NSCLC patient 651, Week 18): —
- Mean SFC (central memory T cells [2]; Week 9): 84.2 SFC per 50,000 cells
- Mean SFC (central memory T cells [2]; Week 18): 283.3 SFC per 50,000 cells
- net SFC of vaccine positive CTL responses (central memory T cells [2]; colon patient 551, Week 9): —
- net SFC of vaccine positive CTL responses (central memory T cells [2]; colon patient 551, Week 18): —
- net SFC of vaccine positive CTL responses (central memory T cells [2]; colon patient 601, Week 9): 88.3 SFC per 50,000 cells
- net SFC of vaccine positive CTL responses (central memory T cells [2]; colon patient 601, Week 18): —
- net SFC of vaccine positive CTL responses (central memory T cells [2]; colon patient 602, Week 9): —
- net SFC of vaccine positive CTL responses (central memory T cells [2]; colon patient 602, Week 18): —
- net SFC of vaccine positive CTL responses (central memory T cells [2]; colon patient 603, Week 9): 114.7 SFC per 50,000 cells
- net SFC of vaccine positive CTL responses (central memory T cells [2]; colon patient 603, Week 18): —
- net SFC of vaccine positive CTL responses (central memory T cells [2]; colon patient 604, Week 9): 70.0 SFC per 50,000 cells
- net SFC of vaccine positive CTL responses (central memory T cells [2]; colon patient 604, Week 18): 413.3 SFC per 50,000 cells
- net SFC of vaccine positive CTL responses (central memory T cells [2]; colon patient 605, Week 9): —
- net SFC of vaccine positive CTL responses (central memory T cells [2]; colon patient 605, Week 18): —
- net SFC of vaccine positive CTL responses (central memory T cells [2]; colon patient 606, Week 9): —
- net SFC of vaccine positive CTL responses (central memory T cells [2]; colon patient 606, Week 18): —
- net SFC of vaccine positive CTL responses (central memory T cells [2]; colon patient 607, Week 9): 72.7 SFC per 50,000 cells
- net SFC of vaccine positive CTL responses (central memory T cells [2]; colon patient 607, Week 18): 414.7 SFC per 50,000 cells
- net SFC of vaccine positive CTL responses (central memory T cells [2]; colon patient 608, Week 9): —
- net SFC of vaccine positive CTL responses (central memory T cells [2]; colon patient 608, Week 18): —
- net SFC of vaccine positive CTL responses (central memory T cells [2]; colon patient 609, Week 9): 75.3 SFC per 50,000 cells
- net SFC of vaccine positive CTL responses (central memory T cells [2]; colon patient 609, Week 18): 22.0 SFC per 50,000 cells
- % of patients with positive CTL/central memory T cell response (central memory T cells [3]; phase 2, month 9): 14%
- patients with positive CTL/central memory T cell response / patients tested (central memory T cells [3]; phase 2, month 9): 1/7
- % of patients with positive CTL/central memory T cell response (central memory T cells [3]; phase 2, month 12): 25%
- patients with positive CTL/central memory T cell response / patients tested (central memory T cells [3]; phase 2, month 12): 1/4
- % of patients with positive CTL/central memory T cell response (central memory T cells [3]; phase 2, week 9): 27%
- patients with positive CTL/central memory T cell response / patients tested (central memory T cells [3]; phase 2, week 9): 9/33
- % of patients with positive CTL/central memory T cell response (central memory T cells [3]; phase 2, week 18): 31%
- patients with positive CTL/central memory T cell response / patients tested (central memory T cells [3]; phase 2, week 18): 10/32
- % of patients with positive CTL/central memory T cell response (central memory T cells [3]; phase 2, week 30): 35%
- patients with positive CTL/central memory T cell response / patients tested (central memory T cells [3]; phase 2, week 30): 8/23

Substance: nivolumab
- median PFS (advanced NSCLC): 3.5 months
